Holding throughout (format): cell-based
Series [1] concerns E. coli. Nature of the series: Cell penetration activity by confocal microscopy (FITC-labeled peptides). As to conditions: FITC-labeled peptide applied to fixed E. coli for 5 minutes. As for the experimental part: FIGS. 1A˜1D are the results of analyzing the cell penetration activity of the new antimicrobial peptides by confocal microscopy. To emphasize the location of the antimicrobial peptides, color was eliminated from the images. The white area in FIGS. 1A˜1D is the antimicrobial peptide penetrated within the cell.
The cell penetration activity of the peptides prepared in Example 1 was observed by confocal microscopy. After inoculating and culturing E. coli in trypticase soy broth at 37° C. overnight, they were inoculated in new media and cultured for 2 hours to exponential growth phase. After washing E. coli with 10 mM NAPB (sodium phosphate buffer) and diluting to 10^5 CFU/ml, the above diluted E. coli was fixed for 30 min on glass-slides coated with poly-L-lysine. The N-terminus of the peptides prepared in Example 1 was labeled with FITC (fluoresceinisothicyanate), and the labeled peptides were applied to E. coli fixed on the glass-slides for 5 minutes. The glass-slides were washed with 10 mM NAPB and observed them by confocal microscopy.

Series [2] deals with human red blood cells (hRBC). Nature of the series: Hemolytic activity on human red blood cells. On the procedure: After separating the precipitated human red blood cells (hRBC) from 3 ml of human blood, they were washed with PBS (phosphate buffered saline) and diluted to make the total volume of 20 ml. In 190 μl of the prepared hRBC solution, 10 μl of each peptide sample (4 μg/μl ) prepared in Example 1 was added to make the final concentration of 200 μg/ml, reacted for 1 h at 37° C. and centrifuged for 5 min at 4000 rpm. […] The absorbance of the sample treated with 0.2% Triton X-100 was set to represent 100% hemolysis and the percent (%) hemolysis of each sample was relatively calculated from each measured absorbance, as shown in Table 3.

Series [3] concerns Staphylococcus aureus (ATCC 15752). As to conditions: ATCC 15752, 12 h. In short, it runs like this: (§1)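 Microdilution MIC: bacteria grown in TSB at 37 °C, fungi in Saboraud at 30 °C, subcultured 2 h to exponential phase. Organisms at 10^5 per ml were exposed to serially diluted peptides in 96-well format.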
For series [4], the system named is Streptococcus mutans (ATCC 25175). As to conditions: ATCC 25175, 12 h. In short, it runs like this:
as §1

The subject of series [5] is Cryptococcus neoformans (ATCC 34881). Conditions: ATCC 34881, 12 h. The method, boiled down: as §1
Series [6] deals with Saccharomyces cerevisiae (ATCC 44774). As to conditions: ATCC 44774, 12 h. The method, boiled down: as §1
Series [7] relates to Candida albicans (ATCC 10231). Conditions: ATCC 10231, 12 h. The method, boiled down: as §1
Series [8] deals with Pseudomonas putida (ATCC 17426). As to conditions: ATCC 17426, 12 h. In short, it runs like this: as §1
Series [9] deals with Bacillus subtilis (ATCC 62037). Conditions: ATCC 62037, 12 h. In short, it runs like this: as §1
Series [10] relates to Escherichia coli (ATCC 27325). Conditions: ATCC 27325, 12 h. The method, boiled down:
as §1

The test system of series [11] is Salmonella enteritidis (ATCC 15277). Conditions: ATCC 15277, 12 h. The method, boiled down:
as §1

No end group written: not given here.

In the case of “33 (KLVRNWPIGKLVRKLVRKLVR; antimicrobial peptide) [compound 33]”, the cell penetration activity entry in series [1] is listed as “penetrate into E. coli cells”.
In [2] (absorbance of supernatant diluted 10 times, peptide 200 μg/ml, 1 h at 37° C.), `CC[C@H](C)[C@H](NC(=O)CN)C(=O)NCC(=O)N[C@@H](C)C(=O)N[C@H](C(=O)N[C@@H](CC(C)C)C(=O)N[C@@H](CCCCN)C(=O)N[C@H](C(=O)N[C@@H](CC(C)C)C(=O)N[C@H](C(=O)N[C@H](C(=O)NCC(=O)N[C@@H](CC(C)C)C(=O)N1CCC[C@H]1C(=O)N[C@@H](C)C(=O)N[C@@H](CC(C)C)C(=O)N[C@H](C(=O)N[C@@H](CO)C(=O)N[C@@H](Cc1c[nH]c2ccccc12)C(=O)N[C@H](C(=O)N[C@@H](CCCCN)C(=O)N[C@@H](CCCNC(=N)N)C(=O)N[C@@H](CCCCN)C(=O)N[C@@H](CCCNC(=N)N)C(=O)N[C@@H](CCC(N)=O)C(=O)N[C@@H](CCC(N)=O)C(N)=O)[C@@H](C)CC)[C@@H](C)CC)[C@@H](C)O)[C@@H](C)O)C(C)C)C(C)C` [Melittin, melittin] showed an A567 of 3.17. Also, the “hemolysis of hRBC (in words)” value in series [2] (concentration of 200 μg/ml) is on record as “destroy almost all hRBC”.
“GIGKFLHSAKKFGKAFVGEIMNS [Magainin, magainin, reference compound]”: the cell penetration activity result in series [1] is “bind with cell membrane”.
Consider RVVRNWPIGRVVRRVVRRVVR [compound 18], for which the “Minimum Inhibitory Concentration” value in [3] came out at 1 µg/mL; in [4], 2 µg/mL; in series [5], 1 µg/mL; in series [6], 1 µg/mL; in [7] it was 1 µg/mL; in [8] it was 1 µg/mL. The “Minimum Inhibitory Concentration” value in series [9] was determined as 1 µg/mL; in [10] it was 1 µg/mL; in series [11], 2 µg/mL.
RVVRQWPIGRVVRRVVRRVVR [compound 1]: the “Minimum Inhibitory Concentration” value in series [3] stood at 1 µg/mL; in series [4], 2 µg/mL; in series [5], 1 µg/mL; in series [6], 2 µg/mL; in [7], 2 µg/mL; in series [8] it was 1 µg/mL. Moreover, the “Minimum Inhibitory Concentration” value came out at 2 µg/mL in series [9], 1 µg/mL in series [10] and 1 µg/mL in [11].
As for RVVRRVVRRVVRNWPIGRVVR [compound 52], the “Minimum Inhibitory Concentration” value in series [3] came out at 1 µg/mL; in [4] it was 2 µg/mL; in series [5] it was 1 µg/mL; in series [6] it was 1 µg/mL; in series [7], 1 µg/mL; in series [8], 1 µg/mL. Also, the “Minimum Inhibitory Concentration” value in [9] came to 1 µg/mL; in series [10], 1 µg/mL; in series [11], 2 µg/mL.
For the compound RVVRRVVRRVVRQWPIGRVVR [compound 35], the “Minimum Inhibitory Concentration” value in [3] was found to be 1 µg/mL; in series [4] it was 1 µg/mL; in series [5] it was 1 µg/mL; in series [6], 2 µg/mL; in series [7], 1 µg/mL; in series [8], 1 µg/mL. Further, the “Minimum Inhibitory Concentration” value in series [9] stood at 1 µg/mL; in series [10], 2 µg/mL; in series [11] it was 1 µg/mL.
As for “SEQ ID NO: 1 (RVVRQWPIGRVVRRVVRRVVR; antimicrobial peptide)”, the cell penetration activity result in series [1] is listed as “penetrate into E. coli cells”.

The record behind these values is patent US7348402B2, “Antimicrobial peptide, its analogs and antimicrobial composition comprising them” (priority 2002, dated 2008).
